The text below walks through data of patent US8410144B2, “Substituted indolo-pyridinone compounds” (ArQule, Inc., priority 2009, dated 2013).

One assay concerns DLD-1. The experiment in a line: MTS assay, DLD-1 cells. Particulars: 72 hours; for DLD-1, MTS cell kill % inhibition: 10 μM; for inhibition at 10 µM: Homo sapiens, read-out: DLD-1, MTS cell kill % inhibition. It counts as cell-based. How it is done: (§1) Cells were maintained at 37° C., 5% CO2 in DMEM media supplemented with 1% fetal bovine serum, penicillin/streptomycin and fungizone (Invitrogen). Cells were seeded into 96-well tissue culture plates at 3000 per well and cultured at 37° C. for 18 hours. Test compounds were dissolved and diluted to 300× in DMSO then diluted 1:40 in DMEM. Cells were incubated with test compounds for 72 hours followed by incubation with tetrazolium compound (3-(4,5-dimethylthiazol-2-yl)-5-(3-carboxymethoxyphenyl)-2-(4-sulfophenyl)-2H-tetrazolium, inner salt; MTS) and the electron coupling reagent, phenazine methosulfate (PMS) for 4 hours. […] The ability of compounds to inhibit cell growth in this assay is correlated with the reduction of dehydrogenase enzyme activity found in metabolically active cells. The measurement of the absorbance of the formazan was assessed using an ENVISION™ (Perkin Elmer) microplate reader at 492 nm. The calculated IC50 value is the concentration of the test compound that causes a 50% decrease in the absorbance.
Background: Tetrazolium assays rely on reduction of a dye to a coloured formazan, in cell work by metabolically active cells.

Another assay concerns MDA-MB-231. Kind of assay: MTS assay, MDA-MB-231 cells. It counts as cell-based. The note with it: 72 hours; for MDA-MB-231, MTS cell kill % inhibition: 10 μM; for inhibition at 10 µM: Homo sapiens, read-out: MDA-MB-231, MTS cell kill % inhibition. How it is done:
as §1

Another assay relates to NCI-H1299. The experiment in a line: MTS assay, NCI-H1299 cells. It counts as cell-based. The note with it: 72 hours; for NCI-H1299, MTS cell kill % inhibition: 10 μM; for inhibition at 10 µM: Homo sapiens, read-out: NCI-H1299, MTS cell kill % inhibition. As to the method: as §1
Another assay deals with IGF-1R (Homo sapiens, UniProt P08069). Kind of assay: IGFR1 activity assay (ELISA). The note with it: for inhibition at 30 µM: read-out: IGF-1R, PCT INH (30 μM), ELISA. It counts as biochemical. How it is done: The disclosed compounds were assayed for their ability to inhibit insulin-like growth factor receptor-1 (IGFR1). Nunc Maxisorb plates were coated with streptavidin by overnight incubation with 100 μL per well of 1 μg/ml Streptavidin in DPBS. Prior to the start of the experiment, the plates were washed with TBST (3×200 μL) and blocked for at least 1 hour by adding 150 μL of 5% BSA/TBST. The plates were washed with TBST (3×200 μL/well) and left to dry immediately before the capture step.
IGF-1R, sequence (P08069 31-1367): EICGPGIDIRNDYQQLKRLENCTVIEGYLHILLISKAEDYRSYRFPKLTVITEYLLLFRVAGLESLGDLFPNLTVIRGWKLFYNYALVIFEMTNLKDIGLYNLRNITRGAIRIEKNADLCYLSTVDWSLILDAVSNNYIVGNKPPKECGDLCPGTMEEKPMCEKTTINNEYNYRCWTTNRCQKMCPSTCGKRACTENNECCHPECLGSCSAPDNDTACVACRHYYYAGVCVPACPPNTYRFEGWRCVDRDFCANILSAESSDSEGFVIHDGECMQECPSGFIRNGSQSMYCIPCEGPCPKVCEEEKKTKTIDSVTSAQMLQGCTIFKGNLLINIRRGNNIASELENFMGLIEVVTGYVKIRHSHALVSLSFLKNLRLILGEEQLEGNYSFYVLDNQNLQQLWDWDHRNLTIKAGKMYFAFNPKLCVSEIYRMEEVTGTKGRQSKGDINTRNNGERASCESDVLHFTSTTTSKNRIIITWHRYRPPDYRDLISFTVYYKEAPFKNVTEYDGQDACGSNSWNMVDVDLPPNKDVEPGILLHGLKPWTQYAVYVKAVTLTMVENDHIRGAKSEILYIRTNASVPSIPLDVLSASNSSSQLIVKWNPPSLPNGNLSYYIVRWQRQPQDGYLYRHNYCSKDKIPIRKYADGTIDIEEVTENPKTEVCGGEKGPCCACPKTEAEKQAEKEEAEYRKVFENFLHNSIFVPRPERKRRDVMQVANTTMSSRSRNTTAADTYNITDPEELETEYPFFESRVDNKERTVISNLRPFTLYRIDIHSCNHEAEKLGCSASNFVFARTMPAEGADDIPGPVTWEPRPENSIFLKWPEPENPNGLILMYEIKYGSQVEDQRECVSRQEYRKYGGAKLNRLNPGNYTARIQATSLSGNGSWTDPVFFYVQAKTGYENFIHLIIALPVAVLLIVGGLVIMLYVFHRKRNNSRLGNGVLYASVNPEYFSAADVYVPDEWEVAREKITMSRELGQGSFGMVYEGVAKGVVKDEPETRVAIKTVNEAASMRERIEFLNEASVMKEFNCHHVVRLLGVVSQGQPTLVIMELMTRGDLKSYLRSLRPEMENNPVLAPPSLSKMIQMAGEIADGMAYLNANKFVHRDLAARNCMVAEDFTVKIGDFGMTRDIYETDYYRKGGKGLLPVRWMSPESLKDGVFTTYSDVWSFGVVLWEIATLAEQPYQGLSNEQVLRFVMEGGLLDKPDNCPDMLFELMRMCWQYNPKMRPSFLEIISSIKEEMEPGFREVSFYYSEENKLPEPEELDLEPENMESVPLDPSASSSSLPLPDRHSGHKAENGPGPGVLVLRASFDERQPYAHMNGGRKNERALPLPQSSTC
The disclosed test articles and controls (Staurosporine) were prepared using the following assay buffer at 3× desired final concentration (50 mM Tris-HCl, 0.02 mg/ml BSA, 10 mM MgCl2, 0.1 mM Na3VO4, 1 mM EGTA, 12.5 μM ATP, 0.01% NP-40, 1 mM DTT in 10% glycerol/water). 20 μL of the test compounds (or control), 20 μL IGF1R (0.33 ng/μL final concentration), and 20 μL of Pyk-2 (0.05 ng/μL final concentration) were rapidly added to the reaction plate. The plate was incubated at room temperature for one hour.
50 μL was transferred from the reaction plate to the streptavidin coated plate. The capture plate was incubated at room temperature for 30 minutes, then washed with TBST three times. 100 μL/well of Cell Signaling anti-phospho tyrosine was added to the capture plate at a dilution of 1:3000 in 2% BSA/TBST. The plate was incubated for one hour at room temperature then washed 6× with TBST. 100 μL/well of alkaline phosphatase tagged goat anti mouse antibody was added to the capture plate at a dilution of 1:4000 in 2% BSA/TBST. The plate was incubated for one hour at room temperature then washed with TBST six times.
The fluorescent readout is initiated by the addition of 100 μL/well of Attophos reagent (6 mg/10 mL). The reading is done on the Perkin Elmer Envision system.

A further assay deals with KATO III. Kind of assay: MTS assay, KATO III cells. It counts as cell-based. Particulars: 72 hours; for KATO III, MTS cell kill % inhibition: 10 μM; for inhibition at 10 µM: Homo sapiens, read-out: KATO III, MTS cell kill % inhibition. How it is done: as §1

On to “3-[3-biphenyl-4-yl-5-({[3- (dimethylamino)propyl](methyl) amino}methyl)-1H-indol-2- yl]pyridin-2(1H)-one [Compound 53]”, for which, in the assay with DLD-1, the “DLD-1, MTS cell kill % inhibition” value is given as “A (A = 80-100% inhibition)”. For the same molecule, the “MDA-MB-231, MTS cell kill % inhibition” value in the assay on MDA-MB-231 is on record as “A (A = 80-100% inhibition)”. Moreover, in the assay on NCI-H1299, the “NCI-H1299, MTS cell kill % inhibition” value is “A (A = 80-100% inhibition)”. For the same molecule, at IGF-1R, the “IGF-1R, PCT INH (30 μM), ELISA” value was “C (C = <50% inhibition)”. Further, the “KATO III, MTS cell kill % inhibition” value in the assay on KATO III is “A (A = 80-100% inhibition)”.

For “3-biphenyl-4-yl-N-(2- chlorophenyl)-2-(2-oxo-1,2- dihydropyridin-3-yl)-1H- indole-5-carboxamide [Compound 35]”, the “DLD-1, MTS cell kill % inhibition” value in the assay on DLD-1 is listed as “C (C = <50% inhibition)”. In the assay on MDA-MB-231, the “MDA-MB-231, MTS cell kill % inhibition” value was “C (C = <50% inhibition)”. Besides, the “NCI-H1299, MTS cell kill % inhibition” value with NCI-H1299 was “C (C = <50% inhibition)”. In addition, on IGF-1R, the “IGF-1R, PCT INH (30 μM), ELISA” value was “C (C = <50% inhibition)”. In the assay on KATO III, the “KATO III, MTS cell kill % inhibition” value is “C (C = <50% inhibition)”.

`O=C(NCc1ccc(F)cc1F)c1ccc2[nH]c(-c3ccc[nH]c3=O)c(-c3ccccc3)c2c1` [Compound 10, N-(2,4-difluorobenzyl)-2-(2-oxo-1,2-dihydropyridin-3-yl)-3-phenyl-1H-indole-5-carboxamide]: the inhibition at 10 µM in the assay with DLD-1 was 80 to 100%; with MDA-MB-231, below 50%; in the assay on NCI-H1299 it was 80 to 100%; with KATO III, 80 to 100%. Further, on IGF-1R, the inhibition at 30 µM fell in the range of 80 to 100%.

With `COCC(C)NC(=O)c1ccc2[nH]c(-c3ccc[nH]c3=O)c(-c3ccccc3)c2c1` (stereo not shown) [Compound 11, N-(2-methoxy-1-methylethyl)-2-(2-oxo-1,2-dihydropyridin-3-yl)-3-phenyl-1H-indole-5-carboxamide], the inhibition at 10 µM in the assay on DLD-1 was 50 to 79%; with MDA-MB-231, below 50%; in the assay with NCI-H1299 it was 50 to 79%; with KATO III it was 80 to 100%. In addition, the inhibition at 30 µM at IGF-1R was 80 to 100%.

In the case of `O=C(c1ccc2[nH]c(-c3ccc[nH]c3=O)c(-c3ccccc3)c2c1)N1CCN(c2ccccc2F)CC1` [Compound 14, 3-(5-{[4-(2-fluorophenyl)piperazin-1-yl]carbonyl) -3-phenyl-1H-indol-2-yl)pyridin-2(1H)-one], the inhibition at 10 µM lay within 50 to 79% with DLD-1, 50 to 79% in the assay on NCI-H1299 and 80 to 100% in the assay with KATO III. Moreover, the inhibition at 30 µM on IGF-1R lay within 80 to 100%.

`O=C(Nc1ccc(F)cc1Cl)c1ccc2[nH]c(-c3ccc[nH]c3=O)c(-c3ccccc3)c2c1` [Compound 18, N-(2-chloro-4-fluorophenyl)-2-(2-oxo-1,2-dihydropyridin-3-yl)-3-phenyl-1H-indole-5-carboxamide]: the inhibition at 10 µM with DLD-1 is 50 to 79%; in the assay on MDA-MB-231, below 50%; with NCI-H1299, 80 to 100%; in the assay on KATO III, 50 to 79%. Moreover, the inhibition at 30 µM on IGF-1R is below 50%.

For `COc1cccc(CCNC(=O)c2ccc3[nH]c(-c4ccc[nH]c4=O)c(-c4ccccc4)c3c2)c1OC` [Compound 19, N-[2-(2,3-dimethoxyphenyl)ethyl]-2-(2-oxo-1,2-dihydropyridin-3-yl)-3-phenyl-1H-indole-5-carboxamide], the inhibition at 10 µM in the assay with DLD-1, in the assay on MDA-MB-231, in the assay with NCI-H1299 and in the assay with KATO III was 80 to 100% in each case. In addition, the inhibition at 30 µM on IGF-1R was 80 to 100%.

Regarding `CN(C(=O)c1ccc2[nH]c(-c3ccc[nH]c3=O)c(-c3ccccc3)c2c1)c1ccc(F)cc1` [Compound 20, N-(4-fluorophenyl)-N-methyl-2-(2-oxo-1,2-dihydropyridin-3-yl)-3-phenyl-1H-indole-5-carboxamide], the inhibition at 10 µM in the assay on DLD-1, in the assay with MDA-MB-231, in the assay with NCI-H1299 and in the assay on KATO III was 80 to 100% in each case. Also, at IGF-1R, the inhibition at 30 µM fell in the range of 80 to 100%.

Take `COc1cc2c(cc1OC)CN(C(=O)c1ccc3[nH]c(-c4ccc[nH]c4=O)c(-c4ccccc4)c3c1)CC2` [Compound 21, 3-{5-[(6,7-dimethoxy-3,4-dihydroisoquinolin-2(1H)-yl)carbonyl]-3-phenyl-1H-indol-2-yl}pyridin-2(1H)-one]: the inhibition at 10 µM in the assay with DLD-1 was in the range of 50 to 79%; in the assay on NCI-H1299, 80 to 100%; in the assay on KATO III, 80 to 100%. For the same molecule, the inhibition at 30 µM at IGF-1R is below 50%.

Take `CN(CCc1ccccc1)C(=O)c1ccc2[nH]c(-c3ccc[nH]c3=O)c(-c3ccccc3)c2c1` [Compound 23, N-methyl-2-(2-oxo-1,2-dihydropyridin-3-yl)-3-phenyl-N-(2-phenylethyl)-1H-indole-5-carboxamide]: the inhibition at 10 µM in the assay with DLD-1, in the assay on MDA-MB-231, with NCI-H1299 and in the assay with KATO III was 80 to 100% in each case. On IGF-1R, the inhibition at 30 µM lay in the range of 80 to 100%.

For the molecule `CCOC(=O)N1CCN(C(=O)c2ccc3[nH]c(-c4ccc[nH]c4=O)c(-c4ccccc4)c3c2)CC1` [Compound 24, ethyl 4-{[2-(2-oxo-1,2-dihydropyridin-3-yl)-3-phenyl-1H-indol-5-yl]carbonyl}piperazine-1-carboxylate], the inhibition at 10 µM in the assay on DLD-1 fell in the range of 50 to 79%; in the assay on NCI-H1299, 50 to 79%; in the assay with KATO III, 80 to 100%. For the same molecule, on IGF-1R, the inhibition at 30 µM is 80 to 100%.

For `O=C(c1ccc2[nH]c(-c3ccc[nH]c3=O)c(-c3ccccc3)c2c1)N1CCN(c2cnccn2)CC1` [Compound 25, 3-{3-phenyl-5-[(4-pyrazin-2-ylpiperazin-1-yl)carbonyl]-1H-indol-2-yl}pyridin-2(1H)-one], the inhibition at 10 µM was in the range of 50 to 79% in the assay on DLD-1, 50 to 79% in the assay with NCI-H1299 and 80 to 100% in the assay on KATO III. Moreover, the inhibition at 30 µM on IGF-1R lay within 80 to 100%.

With `O=C(NC1CCC1)c1ccc2[nH]c(-c3ccc[nH]c3=O)c(-c3ccccc3)c2c1` [Compound 26, N-cyclobutyl-2-(2-oxo-1,2-dihydropyridin-3-yl)-3-phenyl-1H-indole-5-carboxamide], the inhibition at 10 µM with DLD-1, in the assay with MDA-MB-231, in the assay on NCI-H1299 and in the assay on KATO III was 80 to 100% throughout. At IGF-1R, the inhibition at 30 µM fell in the range of 80 to 100%.

With `O=C(NCc1ccc(F)cc1F)c1ccc2[nH]c(-c3ccc[nH]c3=O)c(-c3ccc(-c4ccccc4)cc3)c2c1` [Compound 34, 3-biphenyl-4-yl-N-(2,4-difluorobenzyl)-2-(2-oxo-1,2-dihydropyridin-3-yl)-1H-indole-5-carboxamide], the inhibition at 10 µM fell in the range of 50 to 79% in the assay with DLD-1, 50 to 79% in the assay with MDA-MB-231, 50 to 79% with NCI-H1299 and 80 to 100% in the assay on KATO III.

As for `CN(C)CCCNC(=O)c1ccc2[nH]c(-c3ccc[nH]c3=O)c(-c3ccc(-c4ccccc4)cc3)c2c1` [Compound 49, 3-biphenyl-4-yl-N-[3-(dimethylamino)propyl]-2-(2-oxo-1,2-dihydropyridin-3-yl)-1H-indole-5-carboxamide], the inhibition at 10 µM with DLD-1, in the assay with MDA-MB-231, with NCI-H1299 and in the assay with KATO III was 80 to 100% in each case.

On to `COc1ccc(-c2c(-c3ccc[nH]c3=O)[nH]c3ccc(C(=O)NCCCN4CCOCC4)cc23)c(OC)c1` [Compound 81, 3-(2,4-dimethoxyphenyl)-N-(3-morpholin-4-ylpropyl)-2-(2-oxo-1,2-dihydropyridin-3-yl)-1H-indole-5-carboxamide], for which the inhibition at 10 µM in the assay on DLD-1, in the assay with NCI-H1299 and with KATO III was below 50% throughout. For the same molecule, on IGF-1R, the inhibition at 30 µM lay within 80 to 100%.
